How the values were obtained:
HCT116 = assay: Proliferation assay (Alamar Blue / XTT), HCT116; format: cell-based; conditions: Homo sapiens; cell line HCT-116 (colon)
MDA MB468 = assay: Proliferation assay (Alamar Blue / XTT), MDA MB468; format: cell-based; conditions: Homo sapiens, MDA-MB-468; cell line MDA-MB468 (breast)
PC-3 = assay: Proliferation assay (Alamar Blue / XTT), PC-3; format: cell-based; conditions: Homo sapiens, cell line PC3 (prostate)
A549 = assay: Proliferation assay (Alamar Blue / XTT), A549; format: cell-based; conditions: Homo sapiens; cell line A549 (lung)
U87MG = assay: Proliferation assay (Alamar Blue / XTT), U87MG; format: cell-based; conditions: Homo sapiens, U-87 MG; cell line U87MG (glioma)

Compound | EC50 (HCT116) [nM] | EC50 (PC-3) [nM] | EC50 (A549) [nM] | EC50 (U87MG) [nM] | melting point [°C] | EC50 (MDA MB468) [nM]
CCNC(=O)Nc1cnc2ccc(-c3cc(Cl)c(O)c(Cl)c3)cc2n1 [Compound 74, 1-[7-(3,5-Dichloro-4-hydroxy-phenyl)-quinoxalin-2-yl]-3-ethyl-urea] | 3090 | 2200 | 3910 | 10000 | 295 to 296 | 2100
CCCCNC(=O)Nc1cnc2ccc(-c3cc(Cl)c(O)c(Cl)c3)cc2n1 [Compound 72, 1-Butyl-3-[7-(3,5-dichloro-4-hydroxy-phenyl)-quinoxalin-2-yl]-urea] | 1820 | 880 | 3260 | 3190 | 297 to 298 | 779
CC(C)NC(=O)Nc1cnc2ccc(-c3cnn(C)c3)cc2n1 [Compound 70, 1-Isopropyl-3-[7-(1-methyl-1H-pyrazol-4-yl)-quinoxalin-2-yl]-urea] | 564 | 601 | 1320 | 801 | 260 to 263 | 991
Oc1c(Cl)cc(-c2ccc3ncc(NC(=S)NCCCc4ccccc4)nc3c2)cc1Cl [Compound 96, 1-[7-(3,5-Dichloro-4-hydroxy-phenyl)-quinoxalin-2-yl]-3-(3-phenyl-propyl)-thiourea] | 1540 | 1650 | 1820 | 2350 | 248 to 250 | 1040
Oc1c(Cl)cc(-c2ccc3ncc(NC(=S)NCCc4ccccc4)nc3c2)cc1Cl [Compound 97, 1-[7-(3,5-Dichloro-4-hydroxy-phenyl)-quinoxalin-2-yl]-3-phenethyl-thiourea] | 700 | 538 | 1510 | 1820 | 282 to 285 | 568
Cc1cc(-c2ccc3ncc(NC(=O)NCC(C)(C)C)nc3c2)cc(C)c1O [Compound 67, 1-(2,2-Dimethyl-propyl)-3-[7-(4-hydroxy-3,5-dimethyl-phenyl)-quinoxalin-2-yl]-urea] | 325 | 188 | 352 | 222 | 275 to 276 | 384

Further lines, with some results ahead:

EC50 (HCT116) [nM] | EC50 (PC-3) [nM] | EC50 (A549) [nM] | EC50 (U87MG) [nM] | melting point [°C] | Compound | EC50 (MDA MB468) [nM]
409 | 334 | 1030 | 1800 | 288 to 289 | Oc1c(Cl)cc(-c2ccc3ncc(NC(=S)NC4CCCCCCC4)nc3c2)cc1Cl [Compound 93, 1-Cyclooctyl-3-[7-(3,5-dichloro-4-hydroxy-phenyl)-quinoxalin-2-yl]-thiourea] | 193
2090 | 955 | 2290 | 1970 | 260 to 262 | Oc1c(Cl)cc(-c2ccc3ncc(NC(=S)NC4CC4)nc3c2)cc1Cl [Compound 83, 1-Cyclopropyl-3-[7-(3,5-dichloro-4-hydroxy-phenyl)-quinoxalin-2-yl]-thiourea] | 1050
503 | 300 | 1030 | 1160 | 258 to 260 | O=C(Nc1cnc2ccc(-c3cc(Cl)c(O)c(Cl)c3)cc2n1)NC1CCCCCCC1 [Compound 79, 1-Cyclooctyl-3-[7-(3,5-dichloro-4-hydroxy-phenyl)-quinoxalin-2-yl]-urea] | 253
809 | 306 | 1180 | 3110 | 283 to 286 | O=C(Nc1cnc2ccc(-c3cc(Cl)c(O)c(Cl)c3)cc2n1)NC1CCCCCC1 [Compound 78, 1-Cycloheptyl-3-[7-(3,5-dichloro-4-hydroxy-phenyl)-quinoxalin-2-yl]-urea] | 436
1710 | 1190 | 2040 | 2000 | 277 to 280 | Oc1c(Cl)cc(-c2ccc3ncc(NC(=S)NC4CCC4)nc3c2)cc1Cl [Compound 80, 1-Cyclobutyl-3-[7-(3,5-dichloro-4-hydroxy-phenyl)-quinoxalin-2-yl]-thiourea] | 672
